Reference: patent US20080188528A1, “Modulators of C3a receptor and methods of use thereof” (priority 2006, published 2008)
Counter-ions that a name gives are not always drawn.

Each compound was assayed against T1, human C3a receptor (C3aR) (Homo sapiens, UniProt Q16581) (assay: Inhibition of human [125I]-C3a binding to human C3a receptor (SPA, membranes of HEK293 cells expressing recombinant C3aR)). Conditions: 0.1 nM [125I]-C3a, 3 hours at room temperature; Table 1.
T1 construct: expressed in transfected cells
T1 sequence (Q16581 1-482): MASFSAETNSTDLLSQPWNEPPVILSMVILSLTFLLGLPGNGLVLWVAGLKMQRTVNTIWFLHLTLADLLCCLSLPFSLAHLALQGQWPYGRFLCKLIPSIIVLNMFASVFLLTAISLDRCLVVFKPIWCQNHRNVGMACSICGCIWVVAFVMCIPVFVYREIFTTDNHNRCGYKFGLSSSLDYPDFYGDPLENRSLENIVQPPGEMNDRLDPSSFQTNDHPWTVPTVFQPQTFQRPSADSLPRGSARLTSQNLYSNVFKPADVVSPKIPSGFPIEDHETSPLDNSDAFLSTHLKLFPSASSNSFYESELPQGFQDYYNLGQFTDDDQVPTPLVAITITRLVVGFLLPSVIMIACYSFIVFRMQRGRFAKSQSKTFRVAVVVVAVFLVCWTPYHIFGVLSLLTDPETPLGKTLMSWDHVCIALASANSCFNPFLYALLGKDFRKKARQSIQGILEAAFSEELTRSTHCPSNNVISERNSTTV
Protocol: Inhibition of human [^125I]-C3a binding to human C3a receptor
Binding of human [^125I]-C3a to human C3a receptor (C3aR) was done using cell membranes from HEK293 cells stably expressing recombinant C3aR, in a homogeneous scintillation proximity assay (SPA). The C3aR cell membranes were pre-coupled over-night at 4° C. to WGA-PVT SPA beads (Amersham) at a ratio of 10 μg cell membrane to 0.5 mg beads/assay. Assay was performed in 96-well microtiter Optiplates (Packard) by mixing coupled beads and 0.1 nM [^125I]-C3a (2200 Ci/mmol, Perkin Elmer Life Sciences), in a total volume of […] binding buffer (20 mM HEPES, pH 7.4, 125 mM NaCl, 5 mM KCl, 1 mM CaCl2, 1 mM MgCl2, 0.25% BSA, 0.2% CHAPS). Test compounds were diluted in DMSO and were tested for their inhibitory potential in the assay (final concentration≦1% DMSO). Incubation was done for 3 hours at room temperature followed by reading in a TopCount scintillation microplate reader. Non-specific binding was determined by adding 1 μM unlabeled C3a (Calbiochem) to the assay mixture. Calculation of the IC50 was done as above using a nonlinear least square fitting program, with Graphpad Prism.

IC50	Structure (SMILES)
< 0.05 µM	CC(C)c1cccc(-c2ccccc2Cn2cccc(C(=O)N[C@@H](CCCNC(=N)N)C(=O)O)c2=O)c1 [Compound 29, (2S)-5-carbamimidamido-2-[({1-[(3′-isopropylbiphenyl-2-yl)methyl]-2-oxo-1,2-dihydropyridin-3-yl}carbonyl)amino]pentanoic acid•TFA]
0.05 to 0.5 µM	CC(C)c1ccc(-c2ccccc2Cn2cccc(C(=O)N[C@@H](CCCNC(=N)N)C(=O)O)c2=O)cc1 [Compound 30, (2S)-5-carbamimidamido-2-[({1-[(4′-isopropylbiphenyl-2-yl)methyl]-2-oxo-1,2-dihydropyridin-3-yl}carbonyl)amino]pentanoic acid•TFA]
< 0.05 µM	N=C(N)NCCC[C@H](NC(=O)c1cccn(Cc2ccccc2-c2ccc(F)cc2)c1=O)C(=O)O [Compound 31, (2S)-5-carbamimidamido-2-[({1-[(4′-fluorobiphenyl-2-yl)methyl]-2-oxo-1,2-dihydropyridin-3-yl}carbonyl)amino]pentanoic acid•TFA]
0.05 to 0.5 µM	N=C(N)NCCC[C@H](NC(=O)c1cccn(-c2ccc3ccccc3c2)c1=O)C(=O)O [Compound 32, (2S)-5-carbamimidamido-2-({[1-(2-naphthyl)-2-oxo-1,2-dihydropyridin-3-yl]carbonyl}amino)pentanoic acid•TFA]
0.5 to 20 µM	N=C(N)NCCC[C@H](NC(=O)c1cccn(-c2ccccc2)c1=O)C(=O)O [Compound 33, (2S)-5-carbamimidamido-2-{[(2-oxo-1-phenyl-1,2-dihydropyridin-3-yl)carbonyl]amino}pentanoic acid•TFA]
0.5 to 20 µM	N=C(N)NCCC[C@H](NC(=O)c1cccn(-c2ccc(-c3ccccc3)cc2)c1=O)C(=O)O [Compound 34, (2S)-2-{[(1-biphenyl-4-yl-2-oxo-1,2-dihydropyridin-3-yl)carbonyl]amino}-5-carbamimidamidopentanoic acid•TFA]
0.05 to 0.5 µM	Cc1ccc(C(=O)N[C@@H](CCCNC(=N)N)C(=O)O)c(=O)n1Cc1ccccc1 [Compound 35, (2S)-2-{[(1-benzyl-6-methyl-2-oxo-1,2-dihydropyridin-3-yl)carbonyl]amino}-5-carbamimidamidopentanoic acid•TFA]
0.5 to 20 µM	N=C(N)NCCC[C@H](NC(=O)c1ccc(-c2ccccc2)n(Cc2ccccc2)c1=O)C(=O)O [Compound 36, (2S)-2-{[(1-benzyl-2-oxo-6-phenyl-1,2-dihydropyridin-3-yl)carbonyl]amino}-5-carbamimidamidopentanoic acid•TFA]
0.05 to 0.5 µM	N=C(N)NCCC[C@H](NC(=O)c1cccn(CC(=O)N(c2ccccc2)c2ccccc2)c1=O)C(=O)O [Compound 37, (2S)-5-carbamimidamido-2-[({1-[2-(diphenylamino)-2-oxoethyl]-2-oxo-1,2-dihydropyridin-3-yl}carbonyl)amino]pentanoic acid•TFA]
< 0.05 µM	N=C(N)NCCC[C@H](NC(=O)c1cccn(Cc2cccc(Cl)c2)c1=O)C(=O)O [Compound 38, (2S)-5-carbamimidamido-2-({[1-(3-chlorobenzyl)-2-oxo-1,2-dihydropyridin-3-yl]carbonyl}amino)pentanoic acid•TFA]
< 0.05 µM	N=C(N)NCCC[C@H](NC(=O)c1cccn(Cc2cccc(F)c2)c1=O)C(=O)O [Compound 39, (2S)-5-carbamimidamido-2-({[1-(3-fluorobenzyl)-2-oxo-1,2-dihydropyridin-3-yl]carbonyl}amino)pentanoic acid•TFA]

Same assay, conditions: 0.1 nM [125I]-C3a, 3 hours at room temperature; Table 2

IC50	Structure (SMILES)
< 0.05 µM	N=C(N)NCCC[C@H](NC(=O)c1cccn(C(c2ccccc2)c2ccccc2)c1=O)C(=O)O [Compound 40, (2S)-5-carbamimidamido-2-({[1-(diphenylmethyl)-2-oxo-1,2-dihydropyridin-3-yl]carbonyl}amino)pentanoic acid•TFA]
< 0.05 µM	N=C(N)NCCC[C@@H](NC(=O)c1cccn(C(c2ccccc2)c2ccccc2)c1=O)C(=O)O [Compound 41, (2R)-5-carbamimidamido-2-({[1-(diphenylmethyl)-2-oxo-1,2-dihydropyridin-3-yl]carbonyl}amino)pentanoic acid•TFA]
